We go through 19 molecules from ChEMBL document CHEMBL2150867, “Comparative study of the affinity and metabolism of type I and type II binding quinoline carboxamide analogues by cytochrome P450 3A4” (J Med Chem, 2012).

For orientation: Ki means a measure of affinity in units of concentration, obtained from inhibition or displacement. Usually Km stands for the concentration of substrate that gives half-maximal velocity.

Holding throughout (assay type): ADME
In data set [1] the target is T1, Cytochrome P450 3A4 (Homo sapiens, UniProt P08684). Kind of data set: Binding affinity to recombinant CYP3A4 NF-14 expressed in Escherichia coli at maximum spectrum 385 to 390 nm and a trough at 415 to 420 nm by UV-Visible spectroscopy. As to conditions: recombinant enzyme; call rule not given here.
T1 sequence (P08684 whole entry): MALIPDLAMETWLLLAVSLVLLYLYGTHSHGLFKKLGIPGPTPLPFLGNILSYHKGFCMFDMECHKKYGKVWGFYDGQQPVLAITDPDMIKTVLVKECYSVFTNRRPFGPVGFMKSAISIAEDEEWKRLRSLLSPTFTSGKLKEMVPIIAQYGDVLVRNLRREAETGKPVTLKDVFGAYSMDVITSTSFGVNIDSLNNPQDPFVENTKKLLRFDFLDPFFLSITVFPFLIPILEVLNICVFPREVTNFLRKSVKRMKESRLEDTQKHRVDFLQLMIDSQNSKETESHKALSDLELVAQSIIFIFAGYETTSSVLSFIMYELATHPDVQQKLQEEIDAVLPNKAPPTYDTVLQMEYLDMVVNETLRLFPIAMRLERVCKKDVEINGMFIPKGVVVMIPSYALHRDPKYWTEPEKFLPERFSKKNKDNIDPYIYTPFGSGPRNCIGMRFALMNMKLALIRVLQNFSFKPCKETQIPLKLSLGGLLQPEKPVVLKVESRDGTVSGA
Data set [2] has as its target T1, Cytochrome P450 3A4. Kind of data set: Metabolic stability of the compound assessed as CYP3A4 NF-14-mediated ratio of product formation from functional group oxidation at ring A to aromatic hydroxylation at ring B.
The target of data set [3] is T1, Cytochrome P450 3A4. Kind of data set: Inhibition of recombinant CYP3A4 NF-14 expressed in Escherichia coli assessed as formation of 6-beta-hydroxytestosterone using testosterone as substrate after 5 mins by HPLC based UV method.
Data set [4] addresses T1, Cytochrome P450 3A4. As to the kind of experiment: Intrinsic clearance assessed as CYP3A4-mediated clearance. To be noted: recombinant enzyme.
Data set [5] deals with T1, Cytochrome P450 3A4. Kind of data set: Binding affinity to recombinant CYP3A4 NF-14 expressed in Escherichia coli at maximum spectrum 420 to 435 and a trough at 390 to 405 nm by UV-Visible spectroscopy. To be noted: recombinant enzyme, 0.405 µM.
Data set [6] has as its target T1, Cytochrome P450 3A4. As to the kind of experiment: (§1) Metabolic stability of the compound assessed as CYP3A4 NF-14-mediated N-demethylation.
Data set [7] addresses CYP3A4 (Homo sapiens, UniProt P08684). The data set is described as §1. As to conditions: human, CYP3A4 NF-14.
In data set [8] the target is T1, Cytochrome P450 3A4. As to the kind of experiment: Metabolic stability of the compound assessed as CYP3A4 NF-14-mediated aromatic hydroxylation at ring-B.
Data set [9] addresses T1, Cytochrome P450 3A4. Kind of data set: Metabolic stability of the compound assessed as CYP3A4 NF-14-mediated ratio of product formation from functional group oxidation at ring A to aromatic hydroxylation at ring A.
Data set [10] concerns the target T1, Cytochrome P450 3A4. As to the kind of experiment: Metabolic stability of the compound assessed as CYP3A4 NF-14-mediated aromatic hydroxylation at ring-A.

Molecules are shown by their SMILES.

CYP3A4, sequence (P08684 whole entry): as above

In the case of `O=C(Nc1ccccc1)c1cc(-c2ccccc2)nc2ccccc12`, the outcome in data set [1] was Active. Moreover, the Ratio in data set [2] was 1.3. Also, the Ki in data set [3] worked out at 4.1 µM. Further, the CL in data set [4] came out at 1.3 µM⁻¹ min⁻¹.

For `Cc1ccc(NC(=O)c2cc(-c3ccncn3)nc3ccccc23)cc1`, in data set [3], the Ki was 3 µM. Further, the result in data set [5] was Active. Also, the CL in [4] was 4 µM⁻¹ min⁻¹.

For the molecule `O=C(Nc1ccccc1)c1cc(-c2ccncn2)nc2ccccc12`, the Ki in [3] was found to be 2.2 µM. The result in [5] was Active. Also, the CL in [4] came to 3.2 µM⁻¹ min⁻¹.

As to `CN(C)c1ccc(NC(=O)c2cc(-c3ccccc3)nc3ccccc23)cc1`, the Kcat was 0.465 s⁻¹ in [6] and 0 s⁻¹ in [8]. Further, in data set [7], the Km worked out at 2.9 µM. For the same molecule, in data set [1], the result was Active. In [3], the Ki came to 14.4 µM. In [4], the CL is 9.6 µM⁻¹ min⁻¹.

With `CN(C)c1ccc(NC(=O)c2cc(-c3ccncn3)nc3ccccc23)cc1`, in data set [3], the Ki was 8.4 µM. Also, in data set [5], the result was Active. Besides, the CL in data set [4] came out at 3.4 µM⁻¹ min⁻¹.

For `Cc1ccc(NC(=O)c2cc(-c3ccncc3)nc3ccccc23)cc1`, the Ki in data set [3] was 0.54 µM. In addition, in data set [5], the outcome was Active. In [4], the CL came to 9.7 µM⁻¹ min⁻¹. In data set [9], the Ratio is listed as 4.4.

For `COc1ccc(NC(=O)c2cc(-c3ccncn3)nc3ccccc23)cc1`, the Ki in data set [3] turned out to be 2.2 µM. The outcome in data set [5] was Active. Besides, the CL in data set [4] was 3.3 µM⁻¹ min⁻¹.

`Cc1ccc(NC(=O)c2cc(-c3ccccc3)nc3ccccc23)cc1`: the outcome in [1] was Active. For the same molecule, the Ratio in [2] is 6. In addition, the Ki in data set [3] came to 3.97 µM. Also, in data set [4], the CL came to 3.4 µM⁻¹ min⁻¹.

Take `COc1ccc(NC(=O)c2cc(-c3ccccn3)nc3ccccc23)cc1`: in data set [1], the result was Active. Moreover, in data set [3], the Ki was 11.9 µM. Also, in data set [4], the CL amounted to 2.2 µM⁻¹ min⁻¹.

Turning to `O=C(Nc1ccccc1)c1cc(-c2ccccn2)nc2ccccc12`, the outcome in data set [1] was Active. In addition, the Ki in data set [3] was determined as 14.5 µM. Moreover, the CL in data set [4] was determined as 1.3 µM⁻¹ min⁻¹.

As to `CN(C)c1ccc(NC(=O)c2cc(-c3ccncc3)nc3ccccc23)cc1`, the Kcat in data set [10] is 0 s⁻¹; in data set [6], 0.218 s⁻¹. In addition, in data set [3], the inhibition constant Ki was found to be 0.8 µM. Besides, in data set [5], the outcome was Active. In data set [4], the CL is 12.7 µM⁻¹ min⁻¹.

Consider `CN(C)c1ccc(NC(=O)c2cc(-c3cnccn3)nc3ccccc23)cc1`, for which, in data set [3], the Ki worked out at 15.9 µM. Besides, the result in data set [5] was Active. For the same molecule, the CL in data set [4] worked out at 2.8 µM⁻¹ min⁻¹.

For `O=C(Nc1ccccc1)c1cc(-c2ccncc2)nc2ccccc12`, the Ki in [3] was found to be 0.7 µM. Further, in data set [5], the result was Active. Also, the CL in data set [4] was found to be 12.1 µM⁻¹ min⁻¹. Also, the Ratio in data set [9] is given as 1.3.

On to `Cc1ccc(NC(=O)c2cc(-c3ccccn3)nc3ccccc23)cc1`, for which the result in data set [1] was Active. Further, in data set [3], the Ki worked out at 3.9 µM. Also, in data set [4], the CL amounted to 2.9 µM⁻¹ min⁻¹.

Turning to `Cc1ccc(NC(=O)c2cc(-c3cnccn3)nc3ccccc23)cc1`, the Ki in [3] was 2.7 µM. Moreover, the outcome in [5] was Active. Moreover, the CL in [4] turned out to be 3.3 µM⁻¹ min⁻¹.

For the molecule `COc1ccc(NC(=O)c2cc(-c3ccncc3)nc3ccccc23)cc1`, in data set [10], the Kcat was 0.0217 s⁻¹ and the Km came out at 0.7 µM. The Ki in data set [3] came to 0.54 µM. The outcome in data set [5] was Active. Further, the CL in data set [4] worked out at 4.4 µM⁻¹ min⁻¹. Besides, in data set [9], the Ratio is 1.4.

On to `COc1ccc(NC(=O)c2cc(-c3cnccn3)nc3ccccc23)cc1`, for which, in data set [3], the Ki was found to be 20.1 µM. The outcome in [5] was Active. In addition, the CL in data set [4] came to 3.4 µM⁻¹ min⁻¹.

Regarding `O=C(Nc1ccccc1)c1cc(-c2cnccn2)nc2ccccc12`, the inhibition constant Ki in [3] amounted to 6.9 µM. The outcome in [5] was Active. In data set [4], the CL was 2.5 µM⁻¹ min⁻¹.

Regarding `CN(C)c1ccc(NC(=O)c2cc(-c3ccccn3)nc3ccccc23)cc1`, in data set [1], the result was Active. Further, the Ki in data set [3] came out at 32.9 µM. In [4], the CL is 1 µM⁻¹ min⁻¹.
